Laboratory results reported in the supplement of paper PMC11208160.

Test: recombinant UMI read abundance after kanamycin selection (control-corrected) (log10(CPM+1)); higher = more efficient recombination; extreme values may be limits of the assay; sequences stand for … in AGTGCAGAGAAAATCGGCCAGTTTTCTCTGCCTGCAGTCCGCATGCCGTGGGACCCCTTGGGTTCTAACCTGTTGCCTAGATTTATGCAGCGGACTGCCTTTCTCCCAAAGTGATAAACCGG…AGGTTGGTTTCACT; site = the 11-nt donor
Method in brief: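 Pooled Escherichia coli screen of donor and donor-binding-loop pairs for the IS621 bridge recombinase. Each pair sits with a 12-nt UMI on a plasmid carrying a promoterless kanamycin gene. The library was co-electroporated with a target plasmid encoding a fixed target and T7-inducible recombinase, then plated with IPTG (0.07 mM) plus kanamycin, or unselected, each in two replicates. Recombinant UMIs were PCR-amplified across the donor–target junction and sequenced. Counts became CPM, averaged over replicates, scaled by control-derived factors and reported as log10(CPM+1).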

Row | Sequence | recombinant UMI read abundance (log10)
1 | CCCATATCATGGACCGGTTTTCCCGGTAATCCGTATTTGTC (site CCCATATCTGA) | 0.747
2 | CCCATATCATGGACCGGTTTTCCCGGTAATCCGTATTTGTC (site CCCATATCTGC) | 0
3 | CCCATATCATGGACCGGTTTTCCCGGTAATCCGTATTTGTC (site CCCATATCTGG) | 0
4 | CCCATATCATGGACCGGTTTTCCCGGTAATCCGTATTTGTC (site CCCATATCTGT) | 0
5 | CCCATATCATGGACCGGTTTTCCCGGTAATCCGTATTTGTC (site CCCATATCTTA) | 0
6 | CCCATATCATGGACCGGTTTTCCCGGTAATCCGTATTTGTC (site CCCATCTCTGA) | 0
7 | CCCATATCATGGACCGGTTTTCCCGGTAATCCGTATTTGTC (site CCCATGTCTGA) | 0
8 | CCCATATCATGGACCGGTTTTCCCGGTAATCCGTATTTGTC (site CCCATTTCTGA) | 0.731
9 | CCCATATCATGGACCGGTTTTCCCGGTAATCCGTATTTGTC (site CCCCTATCTGA) | 0
10 | CCCATATCATGGACCGGTTTTCCCGGTAATCCGTATTTGTC (site CCCGTATCTGA) | 0
11 | CCCATATCATGGACCGGTTTTCCCGGTAATCCGTATTTGTC (site CCCTTATCTGA) | 0.395
12 | CCCATATCATGGACCGGTTTTCCCGGTAATCCGTATTTGTC (site CCGATATCTGA) | 0
13 | CCCATATCATGGACCGGTTTTCCCGGTAATCCGTATTTGTC (site CCTATATCTGA) | 0
14 | CCCATATCATGGACCGGTTTTCCCGGTAATCCGTATTTGTC (site CGCATATCTGA) | 0
15 | CCCATATCATGGACCGGTTTTCCCGGTAATCCGTATTTGTC (site CTCATATCTGA) | 0
16 | CCCATATCATGGACCGGTTTTCCCGGTAATCCGTATTTGTC (site GCCATATCTGA) | 0
17 | CCCATATCATGGACCGGTTTTCCCGGTAATCCGTATTTGTC (site TCCATATCTGA) | 0
18 | CCCCAAACATGGACCGGTTTTCCCGGTAATCCGTATTTGTA (site CCCCAAACTTA) | 0.19
19 | CCCCAAACATGGACCGGTTTTCCCGGTAATCCGTATTTGTA (site CCCCACACTTA) | 0.0105
20 | CCCCAAACATGGACCGGTTTTCCCGGTAATCCGTATTTGTA (site CCCCAGACTTA) | 0.00667
21 | CCCCAAACATGGACCGGTTTTCCCGGTAATCCGTATTTGTA (site CCCCATACTTA) | 0.102
22 | CCCCACCCATGGACCGGTTTTCCCGGTAATCCGTATTTGTA (site CCCCACACTTA) | 0.0263
23 | CCCCACCCATGGACCGGTTTTCCCGGTAATCCGTATTTGTA (site CCCCACCCTTA) | 0.00842
24 | CCCCACCCATGGACCGGTTTTCCCGGTAATCCGTATTTGTA (site CCCCACGCTTA) | 0.0484
25 | CCCCACCCATGGACCGGTTTTCCCGGTAATCCGTATTTGTA (site CCCCACTCTTA) | 1.78

Row | Sequence | recombinant UMI read abundance (log10)
26 | CCCCACTCATGGACCGGTTTTCCCGGTAATCCGTATTTGAC (site CCCCACTCTGT) | 1.04
27 | CCCCATACATGGACCGGTTTTCCCGGTAATCCGTATTTGTA (site CCCCAAACTTA) | 0
28 | CCCCATACATGGACCGGTTTTCCCGGTAATCCGTATTTGTA (site CCCCACACTTA) | 0.0183
29 | CCCCATACATGGACCGGTTTTCCCGGTAATCCGTATTTGTA (site CCCCAGACTTA) | 0
30 | CCCCATACATGGACCGGTTTTCCCGGTAATCCGTATTTGTA (site CCCCATACTTA) | 0.512
31 | CCCCGTCCATGGACCGGTTTTCCCGGTAATCCGTATTTGCA (site CCCAGTCCTTG) | 0
32 | CCCCGTCCATGGACCGGTTTTCCCGGTAATCCGTATTTGCA (site CCCCGTCCTTG) | 0.809
33 | CCCCGTCCATGGACCGGTTTTCCCGGTAATCCGTATTTGCA (site CCCGGTCCTTG) | 0.0123
34 | CCCCGTCCATGGACCGGTTTTCCCGGTAATCCGTATTTGCA (site CCCTGTCCTTG) | 0.00689
35 | CCCCTCCCATGGACCGGTTTTCCCGGTAATCCGTATTTGCG (site CCCCTCCCTCG) | 0.014
36 | CCCGACACATGGACCGGTTTTCCCGGTAATCCGTATTTGTA (site CCCAACACTTA) | 0.221
37 | CCCGACACATGGACCGGTTTTCCCGGTAATCCGTATTTGTA (site CCCCACACTTA) | 0.00237
38 | CCCGACACATGGACCGGTTTTCCCGGTAATCCGTATTTGTA (site CCCGACACTTA) | 0.974
39 | CCCGACACATGGACCGGTTTTCCCGGTAATCCGTATTTGTA (site CCCTACACTTA) | 0.0106
40 | CCCGCGTCATGGACCGGTTTTCCCGGTAATCCGTATTTGTC (site CCCGCGTCTGA) | 0.515
41 | CCCGGTACATGGACCGGTTTTCCCGGTAATCCGTATTTGCA (site CCCGGTACTTG) | 0.751
42 | CCCGGTACATGGACCGGTTTTCCCGGTAATCCGTATTTGCA (site CCCGGTCCTTG) | 0
43 | CCCGGTACATGGACCGGTTTTCCCGGTAATCCGTATTTGCA (site CCCGGTGCTTG) | 0
44 | CCCGGTACATGGACCGGTTTTCCCGGTAATCCGTATTTGCA (site CCCGGTTCTTG) | 0
45 | CCCGGTGCATGGACCGGTTTTCCCGGTAATCCGTATTTGAT (site CCAGGTGCTAT) | 0.119
46 | CCCGGTGCATGGACCGGTTTTCCCGGTAATCCGTATTTGAT (site CCCGGTGCTAT) | 0.907
47 | CCCGGTGCATGGACCGGTTTTCCCGGTAATCCGTATTTGAT (site CCGGGTGCTAT) | 0.0111
48 | CCCGGTGCATGGACCGGTTTTCCCGGTAATCCGTATTTGAT (site CCTGGTGCTAT) | 0.00284
49 | CCCGGTGCATGGACCGGTTTTCCCGGTAATCCGTATTTGCA (site CCCGGTACTTG) | 0
50 | CCCGGTGCATGGACCGGTTTTCCCGGTAATCCGTATTTGCA (site CCCGGTCCTTG) | 0.0126

Row | Sequence | recombinant UMI read abundance (log10)
51 | CCCGGTGCATGGACCGGTTTTCCCGGTAATCCGTATTTGCA (site CCCGGTGCTTG) | 0
52 | CCCGGTGCATGGACCGGTTTTCCCGGTAATCCGTATTTGCA (site CCCGGTTCTTG) | 0
53 | CCCGTATCATGGACCGGTTTTCCCGGTAATCCGTATTTGTC (site CCCATATCTGA) | 0.605
54 | CCCGTATCATGGACCGGTTTTCCCGGTAATCCGTATTTGTC (site CCCCTATCTGA) | 0.0235
55 | CCCGTATCATGGACCGGTTTTCCCGGTAATCCGTATTTGTC (site CCCGTATCTGA) | 1.83
56 | CCCGTATCATGGACCGGTTTTCCCGGTAATCCGTATTTGTC (site CCCTTATCTGA) | 0
57 | CCCGTCCCATGGACCGGTTTTCCCGGTAATCCGTATTTGGA (site CCCGTCCCTTC) | 0.00421
58 | CCCGTGACATGGACCGGTTTTCCCGGTAATCCGTATTTGAT (site CCCGTGACTAT) | 1.05
59 | CCCGTTCCATGGACCGGTTTTCCCGGTAATCCGTATTTGGC (site CCCGTTCCTGC) | 0
60 | CCCGTTTCATGGACCGGTTTTCCCGGTAATCCGTATTTGAG (site CCCGTTTCTCT) | 0.807
61 | CCCTACCCATGGACCGGTTTTCCCGGTAATCCGTATTTGCC (site CCCTAACCTGG) | 0
62 | CCCTACCCATGGACCGGTTTTCCCGGTAATCCGTATTTGCC (site CCCTACCCTGG) | 0.541
63 | CCCTACCCATGGACCGGTTTTCCCGGTAATCCGTATTTGCC (site CCCTAGCCTGG) | 0
64 | CCCTACCCATGGACCGGTTTTCCCGGTAATCCGTATTTGCC (site CCCTATCCTGG) | 0
65 | CCCTAGACATGGACCGGTTTTCCCGGTAATCCGTATTTGGG (site ACCTAGACTCC) | 0.036
66 | CCCTAGACATGGACCGGTTTTCCCGGTAATCCGTATTTGGG (site CCCTAGACTCC) | 0.546
67 | CCCTAGACATGGACCGGTTTTCCCGGTAATCCGTATTTGGG (site GCCTAGACTCC) | 0.0233
68 | CCCTAGACATGGACCGGTTTTCCCGGTAATCCGTATTTGGG (site TCCTAGACTCC) | 0.0148
69 | CCCTAGCCATGGACCGGTTTTCCCGGTAATCCGTATTTGCC (site ACCTAGCCTGG) | 0
70 | CCCTAGCCATGGACCGGTTTTCCCGGTAATCCGTATTTGCC (site CACTAGCCTGG) | 0
71 | CCCTAGCCATGGACCGGTTTTCCCGGTAATCCGTATTTGCC (site CCATAGCCTGG) | 0
72 | CCCTAGCCATGGACCGGTTTTCCCGGTAATCCGTATTTGCC (site CCCAAGCCTGG) | 0
73 | CCCTAGCCATGGACCGGTTTTCCCGGTAATCCGTATTTGCC (site CCCCAGCCTGG) | 0
74 | CCCTAGCCATGGACCGGTTTTCCCGGTAATCCGTATTTGCC (site CCCGAGCCTGG) | 0
75 | CCCTAGCCATGGACCGGTTTTCCCGGTAATCCGTATTTGCC (site CCCTAACCTGG) | 0
